Experimental findings from ChEMBL document CHEMBL3102762, “A "natural" approach: synthesis and cytoxicity of monodesmosidic glycyrrhetinic acid glycosides” (Eur J Med Chem, 2014) are described below.

One experiment has as its system 8505C. The experiment in a line: Cytotoxicity against human 8505C cells by SRB assay. Format: functional, cell-based. In general terms: In SRB staining, fixed cells bind dye roughly in proportion to their protein.
A short description of experiment [1]: Cytotoxicity against human 518A2 cells by SRB assay. Format: functional, cell-based.
The nature of experiment [2]: Cytotoxicity against human Lipo cells by SRB assay. Format: functional, cell-based.
The nature of experiment [3]: Cytotoxicity against human SW1736 cells by SRB assay. Format: functional, cell-based. Conditions: SW-1736.
The subject of experiment [4] is MCF7. In words: Cytotoxicity against human MCF7 cells by SRB assay. Format: functional, cell-based.
The subject of a further experiment is NIH3T3. The experiment in a line: Cytotoxicity against mouse NIH/3T3 cells by SRB assay. Format: cell-based.
Experiment [5] can be described thus: Cytotoxicity against human A253 cells by SRB assay. Format: functional, cell-based.
The test system of the next experiment is A549. In words: Induction of apoptosis in human A549 cells by acridine orange/ethidium bromide staining. Format: functional, cell-based.
For experiment [6], the system named is MCF7. The experiment in a line: Induction of apoptosis in human MCF7 cells at 12 uM by acridine orange/ethidium bromide staining. Format: functional, cell-based.
A short description of experiment [7]: Cytotoxicity against human DLD1 cells by SRB assay. Format: functional, cell-based. Conditions: DLD-1.
Experiment [8] relates to MCF7. In words: Induction of apoptosis in human MCF7 cells at 20 uM by acridine orange/ethidium bromide staining. Format: functional, cell-based.
Experiment [9] deals with MCF7. In words: Induction of apoptosis in human MCF7 cells at 40 uM by acridine orange/ethidium bromide staining. Format: functional, cell-based.
Experiment [10] deals with MCF7. The experiment in a line: Induction of apoptosis in human MCF7 cells at 30 uM by acridine orange/ethidium bromide staining. Format: functional, cell-based.

The source made the active and inactive calls. No cut-off for these calls is given here. A value given as a limit tells only on which side of the number the result lay.

For `COC(=O)[C@@]1(C)CC[C@]2(C)CC[C@]3(C)C(=CC(=O)[C@@H]4[C@@]5(C)CC[C@H](O[C@H]6O[C@H](CO)[C@@H](O)[C@H](O)[C@@H]6O)C(C)(C)[C@@H]5CC[C@]43C)[C@@H]2C1`, the IC50 (as a rule, the point on the concentration scale where inhibition reaches its midpoint) with 8505C is 22 µM; in [1], 25.9 µM; in [2] it was greater than 30 µM; in experiment [3] it was 11.2 µM; in the experiment on MCF7 [4], 9.48 µM; in the experiment on NIH3T3 it was greater than 30 µM. Moreover, the IC50 is 13.2 µM in [5] and greater than 30 µM in experiment [7]. Also, the result in the experiment with A549 and in the experiment with MCF7 [6] was Active.
Consider `COC(=O)[C@@]1(C)CC[C@]2(C)CC[C@]3(C)C(=CC(=O)[C@@H]4[C@@]5(C)CC[C@H](O[C@@H]6OC[C@H](O)[C@H](O)[C@H]6O)C(C)(C)[C@@H]5CC[C@]43C)[C@@H]2C1`, for which the result in the experiment on MCF7 [8] and in the experiment with A549 was Active. Moreover, the IC50 is greater than 30 µM with 8505C; greater than 30 µM in [1]; greater than 30 µM in [2]; greater than 30 µM in [3]; 16.7 µM in the experiment with MCF7 [4]; greater than 30 µM in the experiment on NIH3T3. Besides, the 50% inhibitory concentration (IC50) in [5] and in experiment [7] was greater than 30 µM in each case.
In the case of `COC(=O)[C@@]1(C)CC[C@]2(C)CC[C@]3(C)C(=CC(=O)[C@@H]4[C@@]5(C)CC[C@H](O[C@H]6O[C@@H](C)[C@H](O)[C@@H](O)[C@H]6O)C(C)(C)[C@@H]5CC[C@]43C)[C@@H]2C1`, the outcome in the experiment on MCF7 [9] and in the experiment with A549 was Active. The IC50 in the experiment on 8505C is greater than 30 µM; in experiment [1] it was 28.9 µM; in experiment [2], 28.4 µM; in experiment [3], 23.9 µM; in the experiment on MCF7 [4] it was greater than 30 µM; with NIH3T3, greater than 30 µM. The IC50 is 27.2 µM in [5] and greater than 30 µM in [7].
As for `COC(=O)[C@@]1(C)CC[C@]2(C)CC[C@]3(C)C(=CC(=O)[C@@H]4[C@@]5(C)CC[C@H](O[C@H]6OC[C@@H](O)[C@@H](O)[C@@H]6O)C(C)(C)[C@@H]5CC[C@]43C)[C@@H]2C1`, the outcome in the experiment with MCF7 [9] and with A549 was Active. Moreover, the 50% inhibitory concentration (IC50) (in the experiment on 8505C; in experiment [1]; in [2]; in [3]; with MCF7 [4]; in the experiment with NIH3T3) was greater than 30 µM throughout. The IC50 in experiment [5] and in experiment [7] was greater than 30 µM each time.
Consider `COC(=O)[C@@]1(C)CC[C@]2(C)CC[C@]3(C)C(=CC(=O)[C@@H]4[C@@]5(C)CC[C@H](O)C(C)(C)[C@@H]5CC[C@]43C)[C@@H]2C1`, for which the result with MCF7 [10] and with A549 was Active.
As to `COC(=O)[C@@]1(C)CC[C@]2(C)CC[C@]3(C)C(=CC(=O)[C@@H]4[C@@]5(C)CC[C@H](O[C@@H]6OC[C@@H](O)[C@H](O)[C@H]6O)C(C)(C)[C@@H]5CC[C@]43C)[C@@H]2C1`, the result in the experiment on MCF7 [9] and in the experiment with A549 was Active. Besides, the half-inhibitory concentration (IC50) (with 8505C; in experiment [1]; in experiment [2]; in experiment [3]; in the experiment on MCF7 [4]; in the experiment on NIH3T3) was greater than 30 µM each time. The IC50 in [5] and in experiment [7] was greater than 30 µM each time.
`COC(=O)[C@@]1(C)CC[C@]2(C)CC[C@]3(C)C(=CC(=O)[C@@H]4[C@@]5(C)CC[C@H](O[C@@H]6O[C@H](CO)[C@H](O)[C@H](O)[C@H]6O)C(C)(C)[C@@H]5CC[C@]43C)[C@@H]2C1`: the IC50 with 8505C was 22.8 µM; in experiment [1] it was 23.3 µM; in [2], 23.2 µM; in experiment [3], 21.4 µM; in the experiment with MCF7 [4], 20.1 µM; in the experiment on NIH3T3, 23.4 µM. For the same compound, the IC50 in experiment [5] amounted to 19.7 µM; in experiment [7], 23.2 µM. The result in the experiment with MCF7 [10] and with A549 was Active.
For `COC(=O)[C@@]1(C)CC[C@]2(C)CC[C@]3(C)C(=CC(=O)[C@@H]4[C@@]5(C)CC[C@H](O[C@@H]6O[C@@H](C)[C@H](O)[C@@H](O)[C@H]6O)C(C)(C)[C@@H]5CC[C@]43C)[C@@H]2C1`, the IC50 is greater than 30 µM with 8505C; greater than 30 µM in experiment [1]; greater than 30 µM in experiment [2]; greater than 30 µM in experiment [3]; 19.6 µM in the experiment on MCF7 [4]; greater than 30 µM in the experiment on NIH3T3. Further, the 50% inhibitory concentration (IC50) in [5] and in [7] was greater than 30 µM each time. For the same compound, the outcome in the experiment with MCF7 [10] and in the experiment with A549 was Active.
